Paper PMC4856416, “ATP half‐sites in RadA and RAD51 recombinases bind nucleotides” (FEBS Open Bio, 2016)

Key:
RAD51–BRC4 = target: T1, RAD51–BRC4 (Homo sapiens, UniProt Q06609); test: ITC; format: binding; settings: read-out: RAD51-BRC4 / K D/μM
T1 construct: monomerised fusion: BRC repeat 4 of BRCA2 covalently linked to the N terminus of the human RAD51 ATPase domain; with Breast cancer type 2 susceptibility protein (BRC repeat 4)

HumRadA2 = target: T2, HumRadA2 (Pyrococcus furiosus, UniProt O74036, I169M/Y201A/V202Y/E219S/D220A/K221M/DEL288-301); test: ITC; format: binding; settings: 25 °C, 50 mM Tris pH 7.5, 100 mM NaCl, 5 mM MgCl2; read-out: HumRadA2 / K D/μM
T2 construct: gene radA; humanised monomeric C-terminal ATPase domain of RadA; six FxxA-site mutations; E. coli BL21(DE3)

ITC = format: binding, Pyrococcus furiosus; settings: 25 °C, 50 mM Tris pH 7.5, 100 mM NaCl, 5 mM MgCl2; read-out: RAD51-BRC4 / K D/μM

T1 sequence (Q06609 97-339 limits assumed): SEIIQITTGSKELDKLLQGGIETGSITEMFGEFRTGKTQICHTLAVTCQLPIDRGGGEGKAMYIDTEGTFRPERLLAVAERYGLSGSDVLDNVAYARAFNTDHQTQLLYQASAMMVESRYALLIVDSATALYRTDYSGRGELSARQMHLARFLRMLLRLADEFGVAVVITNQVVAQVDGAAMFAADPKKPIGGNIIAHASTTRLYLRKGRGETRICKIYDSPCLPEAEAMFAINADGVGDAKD
T1 sequence (P51587 1517-1551 partner limits assumed): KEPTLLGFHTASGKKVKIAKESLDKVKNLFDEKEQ

SMILES	Kd (RAD51–BRC4) [µM]	Kd (HumRadA2) [µM]	Kd (ITC) [µM]
Nc1ncnc2c1ncn2[C@@H]1O[C@H](COP(=O)(O)OP(=O)(O)O)[C@@H](O)[C@H]1O [ADP]	1	0.54	
Nc1ncnc2c1ncn2[C@@H]1O[C@H](COP(=O)(O)OP(=O)(O)NP(=O)(O)O)[C@@H](O)[C@H]1O [AMPPNP]	12	20	
Nc1ncnc2c1ncn2[C@@H]1O[C@H](COP(=O)(O)OP(=O)(O)OP(=O)(O)O)[C@@H](O)[C@H]1O [ATP]	1		1
Nc1nc2c(ncn2[C@@H]2O[C@H](COP(=O)(O)OP(=O)(O)O)[C@@H](O)[C@H]2O)c(=O)[nH]1 [GDP]	2.5	0.21	
Nc1nc2c(ncn2[C@@H]2O[C@H](COP(=O)(O)OP(=O)(O)OP(=O)(O)O)[C@@H](O)[C@H]2O)c(=O)[nH]1 [GTP]	5	0.64	
